Patent US8496942B2, “Therapeutic peptides and uses thereof” (priority 2006, dated 2013)
Where a SMILES comes first, the peptide text is derived from it.

How the values were obtained:
PBMC cultures = conditions: 72 hr, 1 mM, FIG. 15
[1] = system: HIV-1 clade B (Strain SF162) and clade C (Strain 97ZA009); test: Inhibition of HIV replication (neutralization) in PBMCs, p24 immunoassay; format: cell-based; conditions: 10 nM, FIGS. 13A-B
Procedure: The ability of the peptides to inhibit replication of HIV, both alone and in combination with antibodies, was tested as follows. Approximately 3 million cells of frozen human PBMCs, obtained from the California Blood Bank system, were thawed at 37° C. and transferred to a 50 mL conical tube where 8 mL of wash medium were added slowly. Then an additional 8 mL of wash medium were added and swirled to mix. The cells were then centrifuged at 330 g for 10 min, the supernatant was removed and the pellet was resuspended in 10 mL wash medium and centrifuged as above. The washed cells were then resuspended in RPMI-B medium containing 10% FBS, phytohemagglutin was added to 5 μg/mL, and cells were incubated at 37° C. for 24 hr in humidified 5% CO2. Cells were washed, suspended to about 6 million cells per mL, and 50 μL, (about 250,000 viable cells) were added to each test well. Then 100 ↑L of the test peptide were added at a concentration sufficient to provide the desired final concentration, followed by 100 μL of virus suspension (100 median tissue culture infective doses (TCID50s)). The assay plate was incubated 3 days at 37° C., then washed 3 times to remove unbound virus, and the cells were again suspended to 250 μL of medium. After an additional 24 hr of incubation, cells were lysed with Triton X-100 and each sample was assayed by an enzyme-linked immunoassay for virus protein p24 to quantify neutralization of virus. In another set of samples, antibody preparations were also added at a desired concentration (i.e., in addition to peptide).
This peptide construct was assayed for activity with two strains of HIV, clade B (Strain SF162) and clade C (Strain 97ZA009), both of which were provided by the California Department of Public Health (Richmond, Calif.). HIV-1 clade B is the major strain in North America and HIV-1 clade C is the major strain in central and southern Africa, India and China. The peptide was assayed either alone (−) or in combination with serum from HIV-infected individuals (+), as outlined below in TABLE 3.
(SEQ ID NO:7). The short bars represent neutralization by peptide alone. The long bars represent neutralization when pooled serum from HIV-positive patients was added along with the peptide. The bars represent averages from two experiments, each performed in quadruplicate. In one set of experiments, each peptide was assayed at 10 nM for the ability to inhibit replication. In the absence of peptide, the antibody preparation (serum) provided only about 30% neutralization (inhibition), at the same dilution (data not shown).

[2] = system: macrophages in PBMC cultures; test: Phagocytosis of microspheres opsonized with anti-HIV antibodies; format: cell-based, human
Procedure: The ability of the peptide constructs to stimulate phagocytosis was assessed in two experiments. In the first experiment, a biotin-tagged peptide epitope of a surface protein of HIV-1 was bound to streptvidin on the surface of the beads. An antibody preparation that was raised against this epitope was then bound to the HIV peptide. The beads were then washed and presented to peripheral blood mononuclear cell (PBMC) cultures pretreated with peptides. […] In multiple control cultures, the number of beads within a macrophage-like cell ranged from 0 to 3. […] In the treated cultures, greater than 20 beads were counted in each phagocytic cell. After several subsequent and similar experiments were conducted, a phagocytic index was developed for the activity of macrophages to ingest microspheres opsonized with anti-HIV antibodies (TABLE 1).

PBMCs = test: Induction of cytokine release from PBMCs (membrane antibody array); format: cell-based, human; conditions: PBMC medium, 4 hr, 100 nM peptide; for Relative concentration of IL-21: IFN-γ printed in place of LPS
Procedure: To determine whether inhibition of HIV replication by the peptide may be the result of induction of release of cytokines, cultured PBMCs were treated with one peptide embodiment of the present invention and, after 4 hr incubation, the medium was collected and assayed for changes in the amounts of 40 different cytokines. […] Approximately 3 million cells of frozen human PBMCs were thawed at 37° C. and transferred to a 50 mL conical tube where 8 mL of wash medium were added slowly. Then an additional 8 mL of wash medium were added and swirled to mix. The cells were then centrifuged at 330 g for 10 min, the supernatant was removed and the pellet was resuspended in 10 mL wash medium and centrifuged as above. The washed cells were then resuspended in RPMI-1640 medium containing 10% FBS to about 6 million cells per mL and 100 μL of the suspension were added into each well of a 96-well microtiter plate and incubated overnight at 37° C. in humidified 5% CO2. After 24 hr the medium was replaced with 200 μL fresh RPMI-1640 medium containing 10% FBS and incubated at 37° C. in humidified 5% CO2 for 2 days. For the data shown in TABLE 4, the peptide aliquot was then added to samples in duplicate at a final concentration of 100 nM and incubated at 37° C. in humidified 5% CO2 for 4 hr. For other experiments (data not included), the incubation was continued for 24 hr. The medium was then removed and stored at −80° C. The samples were analyzed for production of cytokines One set of control cells was not treated with an experimental agent.
Culture medium was removed for assay of cytokine levels with methods developed by RayBiotech, Inc. (Norcross, Ga.). In this technology, membrane arrays of antibodies against cytokines were incubated with samples of media. After washing, the array was incubated with a cocktail of all antibodies tagged with biotin. The membrane was then washed free of unbound antibodies and incubated with streptavidin labeled with a fluorescent dye. After a final wash, the membrane arrays were read in a fluorescence detector.

[3] = system: peripheral blood mononuclear cells; test: Phagocytosis of opsonized microspheres by peptide-treated PBMCs (second experiment); format: cell-based, human; conditions: 50 nM peptide construct; interferon-gamma 100 ng/mL
Procedure: In a second experiment, streptavidin-coated microspheres, dyed with Dragon Green (0.97 μm diameter, Bangs Laboratories, Inc., Fishers, Ind.) were opsonized with rabbit anti-streptavidin serum (Sigma-Aldrich) and washed with phosphate buffered saline, pH 7.4 (PBS). Human PBMCs were cultured in microtiter plates in RPMI-1640 medium containing 10% fetal bovine serum (FBS) and 1:100 dilution of penicillin-streptomycin solution (Mediatech, Inc., Herndon, Va.) Cultures were washed to remove non-adherent cells, and fresh medium containing FBS, antibiotics, and 50 nM peptide was added to adherent cells for an additional 20 to 24 h. Microspheres were added at approximately a 10:1 ratio to total cells, and after an additional 30 to 60 min of incubation, a solution containing 2% formalin was added. […]
FIGS. 9A-I illustrate phagocytosis of opsonized microspheres by peptide-treated PBMCs. […] The experiment was quantified by counting the number of beads in the phagocytic cells (TABLE 2).
In order to establish that the bead-like material within the cells was indeed engulfed beads, fluorescence was examined. […] Cells were examined by both phase contrast microscopy (left panels) and fluorescence microscopy with blue excitation light (right panels). […]

[4] = system: lectins (HP, GS, WGA, DB, UEA1, SNA1, MAA, concanavalin A); test: Lectin binding, panel of lectins (valency and specificity); conditions: seven lectins, equal number of HPSLK sequences per well, FIG. 4
Description: Each assay used the same basic procedure.
FIG. 6 illustrates the specificity with which the quadravalent peptide constructs bind to different lectins.

Molecule	inhibitory activity when assayed alone [1]	level of inhibition with antibodies added [1]	Phagocytosis Index [2]	Relative concentration of IL-12p40 (PBMCs)	Relative concentration of IL-15 (PBMCs)	Relative concentration of IL-16 (PBMCs)	Relative concentration of IL-17 (PBMCs)	Relative concentration of sTNF RII (PBMCs)	Relative concentration of IL-21 (PBMCs)	Beads/cell (mean ± SD) [3]	further results
CC(C)C[C@H](NC(=O)[C@H](CO)NC(=O)[C@@H]1CCCN1C(=O)[C@@H](N)Cc1c[nH]cn1)C(=O)N[C@@H](CCCCN)C(=O)NCC(=O)NCC(=O)NCC(=O)N[C@@H](CO)C(=O)NCCCC[C@H](NC(=O)[C@H](CO)NC(=O)CNC(=O)CNC(=O)CNC(=O)[C@H](CCCCN)NC(=O)[C@H](CC(C)C)NC(=O)[C@H](CO)NC(=O)[C@@H]1CCCN1C(=O)[C@@H](N)Cc1c[nH]cn1)C(=O)NCCCC[C@H](NC(=O)[C@H](CCCCNC(=O)[C@H](CO)NC(=O)CNC(=O)CNC(=O)CNC(=O)[C@H](CCCCN)NC(=O)[C@H](CC(C)C)NC(=O)[C@H](CO)NC(=O)[C@@H]1CCCN1C(=O)[C@@H](N)Cc1c[nH]cn1)NC(=O)[C@H](CO)NC(=O)CNC(=O)CNC(=O)CNC(=O)[C@H](CCCCN)NC(=O)[C@H](CC(C)C)NC(=O)[C@H](CO)NC(=O)[C@@H]1CCCN1C(=O)[C@@H](N)Cc1c[nH]cn1)C(N)=O [HPSLK] (HELM PEPTIDE1{H.P.S.L.K.G.G.G.S.K.K.[am]}|PEPTIDE2{H.P.S.L.K.G.G.G.S.K}|PEPTIDE3{H.P.S.L.K.G.G.G.S}|PEPTIDE4{H.P.S.L.K.G.G.G.S}$PEPTIDE1,PEPTIDE4,10:R3-9:R2|PEPTIDE1,PEPTIDE2,11:R3-10:R2|PEPTIDE2,PEPTIDE3,10:R3-9:R2$$$V2.0)	–	–	–	–	–	–	–	–	–	–	viability of cells in PBMC cultures (PBMC cultures): partially reduced viability
PSSNA: peptide construct containing four copies of the core sequence PSSNA	substantial inhibitory activity	enhanced by adding antibodies	+++ (+++ = 15)	28 arbitrary units	153 arbitrary units	12 arbitrary units	21 arbitrary units	21 arbitrary units	130 arbitrary units	–	Relative concentration of IL-4 (PBMCs): 60 arbitrary units; Relative concentration of IL-8 (PBMCs): 702 arbitrary units; Relative concentration of IL-12p70 (PBMCs): 69 arbitrary units; Relative concentration of TNF-α (PBMCs): 123 arbitrary units
VGGGS: peptide construct containing four copies of the core sequence VGGGS	substantial inhibitory activity	enhanced by adding antibodies	+++ (+++ = 15)	51 arbitrary units	130 arbitrary units	10 arbitrary units	24 arbitrary units	26 arbitrary units	–	–	Relative concentration of ICAM-1 (PBMCs): 89 arbitrary units; Relative concentration of IL-1α (PBMCs): 291 arbitrary units; Relative concentration of IL-2 (PBMCs): 125 arbitrary units; Relative concentration of IP-10 (PBMCs): 321 arbitrary units; Relative concentration of RANTES (PBMCs): 213 arbitrary units; Relative concentration of TIMP-2 (PBMCs): 205 arbitrary units; Relative concentration of TNF-β (PBMCs): 111 arbitrary units
VSNQH: peptide construct containing four copies of an inactive core sequence VSNQH, negative control (VNSQH) [reference compound]	–	–	–	–	–	–	–	–	–	1.3 ± 1.8	–
single sequence: peptide with 1 arm containing the core sequence HPSLK	–	–	–	–	–	–	–	–	–	–	binding relative to the quadravalent peptide (set as 100%) [4]: much lesser extent
Interferon-gamma: interferon-gamma, positive control (protein, UniProt P01579 24-161, looked up) Interferon gamma: QDPYVKEAENLKKYFNAGHSDVADNGTLFLGILKNWKEESDRKIMQSQIVSFYFKLFKNFKDDQSIQKSVETIKEDMNVKFFNSNKKKRDDFEKLTNYSVTDLNVQRKAIHELIQVMAELSPAAKTGKRKRSQMLFRG	–	–	+++ (+++ = 15)	–	–	–	–	–	(IFN-γ: 100) arbitrary units	35.8 ± 12.6	–
